# US20130131140A1, “TREATMENT OF DIABETES AND DISORDERS ASSOCIATED WITH VISCERAL OBESITY WITH INHIBITORS OF HUMAN ARACHIDONATE 12 LIPOXYGENASE AND ARACHIDONATE 15-LIPOXYGENASE” (priority 2010, published 2013)
# Entries after “also recorded” stand apart in the source; their conditions may differ.
# What was measured:
# human islets [1] = experiment: Glucose-stimulated insulin secretion in human islets; format: cell-based; conditions: for effect on insulin secretion: human islets, 1 and 100 nM, 4 hours incubation, then 1 hour in 11 mM glucose
# Description: In other studies, human islets were cultured in CMRL medium-1066 (Invitrogen) with 5% fetal bovine serum overnight and then transitioned to serum free Kreb-Ringer buffer at 37° C., and islets were incubated with and without HETEs in 3 and 18 mM glucose for 4 hours, as shown in FIG. 12. The supernatant was collected after each treatment, and insulin concentration in the supernatant was measured by an enzyme immunoassay method (Mercodia, Uppsala, Sweden) with a mouse or human insulin standard. The intraassay variation was less than 4%, and the interassay variation was less than 10%.
# LOs catalyze the oxidation of linoleic acid and arachidonic acid, generating products of varying stability. […] Referring to FIGS. 13A and 13B, 12(S)-HETE, 15(S)-HETE, 12-HPETE, and 12-RHETE were tested at 1 and 100 nM doses to examine their effects on insulin secretion. Human islets were incubated with the various HETEs for 4 hours and then assessed for insulin secretion during a 1-hour period incubated in 11 mM glucose. Also confirmed were the effects of 12(S)-HETE on basal (3 mM) and stimulated (18 mM) glucose concentration.
# human islets [2] = experiment: Cell death by propidium iodide (PI) fluorescence; format: cell-based; conditions: for cell death, PI staining intensity: overnight incubation
# Description: Islets were treated with 20 μg/ml of propidium iodide (PI) and incubated for 10 minutes. Islets were imaged once under brightfield illumination to determine the islet borders and imaged again to measure PI fluorescence using 535-nm excitation and 617-nm emission as previously reported (11). Islets were circled, and the mean PI fluorescence intensity was determined for each islet individually. Three separate trials from three donors were conducted.
# Islet cell death was evaluated by PI staining in islets after overnight incubation with 1, 10, or 100 nM 12(S)-HETE. […] This finding is consistent with dose-response measures of cell death previously observed with mouse islets (8).
# p38-MAPK = experiment: Western immunoblot of phosphorylated p38-MAPK in human islets; format: cell-based
# Text: (§1) Equal amounts of whole islet cell protein extracts were separated on polyacrylamide-sodium dodecyl sulfate gels and transferred to polyvinylidene difluoride transfer membranes (GE Healthcare, Buckinghamshire, UK). The blots were probed with primary antibodies, and bands were detected using horseradish […] secondary antibodies (GE Healthcare UK Limited, Chalfont, UK) and the enhanced chemiluminescence detection system (GE Healthcare).
# (§2) Rabbit PAb anti-p38-MAPK (pTpY180/182) and anti-c-Jun N-terminal kinase (JNK)-1 and -2 (pTpY183/185) were purchased from Alpha BioSource/Invitrogen and were used at a 1:500 dilution. Mouse monoclonal anti-p38-MAPK (A-12) and rabbit polyclonal anti-actin (1-19) were purchased from Santa Cruz Biotechnology (Santa Cruz, Calif.). p38-MAPK was used at a 1:500 dilution, and actin was used at a 1:2500 dilution. Rabbit anti-12-LO (see Ref. 8) was used at a 1:1000 dilution.
# (§3) To determine whether treating islets with 12(S)-HETE would affect the activity of two well-known stress-mediated pathways linked to β-cell damage, p38-MAPK and JNK in human islets, were investigated. […] The results are presented as the means±SD. *, P<0.05 compared with the corresponding control; #, P<0.05 compared with the cytokine treatment group.
# JNK-1 and -2 = experiment: Western immunoblot of phosphorylated JNK in human islets; format: cell-based; conditions: human islets treated with 12(S)-HETE
# Text: as §1, §2, §3
# human islets [3] = conditions: 50 μm LSF overnight pretreatment, then 1 nm 12(S)-HETE 4 hours
# Description: Viability was assessed by detecting 3-(4,5-dimethylthiazol-2-yl)-2,5-diphenyltetrazolium bromide (MTT; Sigma-Aldrich) metabolism as previously described (17).
# Human islets from four different human donors were pretreated with 50 μm LSF overnight or untreated as indicated. Islets were then treated with 1 nm 12(S)-HETE for 4 hours and incubated in 11 mm glucose for 1 hour to measure islet metabolic activity by MTT assay (A) or insulin secretion (B).
# [4] = human islets treated with 12(S)-HETE
structure (smiles),measurement,setting,value
"CCCCC/C=C\C[C@@H](O)/C=C/C=C\C/C=C\CCCC(=O)O [12(S)-HETE, 12-hydroxyeicosatetraenoic acid]",effect on insulin secretion,human islets [1],consistently reduced; also recorded: most substantial reduction in insulin secretion
same,increase in cell death,human islets [2]; 100 nM,50%
same,"cell death, PI staining intensity",human islets [2]; 100 nM,significant increase in cell death
same,"cell death, PI staining intensity",human islets [2]; 1 or 10 nM,no significant increase in cell death
same,phosphorylated p38 (pp38) protein activity,p38-MAPK; [4],increased phosphorylated p38
same,total p38-MAPK (p38),p38-MAPK; [4],without any change
same,phosphorylated JNK (ppJNK1 and -2) activity,JNK-1 and -2,not affected
"CCCCC/C=C\CC(/C=C/C=C\C/C=C\CCCC(=O)O)OO (stereo not drawn) [12-HPETE, 12-hydroperoxyeicosatetraenoic acid]",effect on insulin secretion,human islets [1],consistently reduced
same,effect on insulin secretion,human islets [1]; listed as 12(S)HPETE,most substantial reduction in insulin secretion
"N#CC(=Cc1ccc(O)c(O)c1)C(=O)OCC=Cc1ccccc1 [CDC, cinnamyl-3,4-dihydroxy-α-cyanocinnamate]",cytokine-induced pp38-MAPK activity,"p38-MAPK; human islets pretreated with CDC, cytokines TNF-α, IFN-γ, IL-1β",significantly reduced; also recorded: blocked
"C[C@@H](O)CCCCn1c(=O)c2c(ncn2C)n(C)c1=O [LSF, Lisofylline]",reversal of 12(S)-HETE effects on metabolic activity (MTT assay),human islets [3],partially reversed
same,reversal of 12(S)-HETE-induced reduction in insulin secretion,"human islets [1]; 50 μm LSF overnight pretreatment, then 1 nm 12(S)-HETE 4 hours, 11 mm glucose 1 hour",reversed
